Source: patent US20260116868A1 (Arcus Biosciences, Inc., priority 2023, published 2026)
pIC50: −log10 of the molar value.

These compounds were tested against T1, Cbl-b (Homo sapiens, UniProt Q13191) (assay: Cbl-b probe displacement HTRF binding assay). Details: 0.4 nM Cbl-b, 150 nM BODIPY probe.
T1 construct: biotin (biotinylated protein)
How it was run: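 Binding IC50 from four-parameter fit of HTRF signal loss, normalised to DMSO (0%) and no-protein (100%) wells. Biotinylated Cbl-b 0.4 nM was preincubated 60 min with compound (20-point 1:2 dilution) before 15 min with 150 nM BODIPY probe; Tb-streptavidin detection.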

T1 sequence (Q13191 whole entry, species assumed): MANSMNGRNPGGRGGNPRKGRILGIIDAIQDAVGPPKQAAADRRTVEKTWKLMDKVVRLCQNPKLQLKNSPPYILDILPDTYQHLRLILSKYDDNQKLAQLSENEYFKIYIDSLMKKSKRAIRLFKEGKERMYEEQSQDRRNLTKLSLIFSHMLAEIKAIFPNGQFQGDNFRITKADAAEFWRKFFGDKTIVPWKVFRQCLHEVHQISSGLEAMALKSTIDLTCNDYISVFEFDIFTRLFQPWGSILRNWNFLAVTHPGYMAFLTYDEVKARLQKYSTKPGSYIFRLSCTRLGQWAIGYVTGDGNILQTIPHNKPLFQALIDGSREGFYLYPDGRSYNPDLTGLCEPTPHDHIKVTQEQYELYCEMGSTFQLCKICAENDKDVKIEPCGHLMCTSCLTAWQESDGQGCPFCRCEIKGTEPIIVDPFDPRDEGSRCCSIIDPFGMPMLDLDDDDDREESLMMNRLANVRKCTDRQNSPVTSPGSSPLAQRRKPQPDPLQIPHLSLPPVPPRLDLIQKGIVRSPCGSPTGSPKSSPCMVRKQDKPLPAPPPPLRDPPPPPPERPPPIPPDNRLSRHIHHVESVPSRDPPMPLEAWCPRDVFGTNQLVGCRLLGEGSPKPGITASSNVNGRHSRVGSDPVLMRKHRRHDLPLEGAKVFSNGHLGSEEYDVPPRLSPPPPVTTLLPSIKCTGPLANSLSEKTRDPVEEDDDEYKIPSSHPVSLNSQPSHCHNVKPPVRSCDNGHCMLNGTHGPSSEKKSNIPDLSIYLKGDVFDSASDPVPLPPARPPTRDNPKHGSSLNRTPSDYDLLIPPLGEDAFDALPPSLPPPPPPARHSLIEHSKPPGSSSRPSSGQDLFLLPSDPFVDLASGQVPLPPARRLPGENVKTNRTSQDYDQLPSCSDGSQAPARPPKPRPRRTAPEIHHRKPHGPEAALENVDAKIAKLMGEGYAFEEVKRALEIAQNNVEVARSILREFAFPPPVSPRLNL

| pIC50 | Compound |
| --- | --- |
| > 7.00 | CO[C@@H](C)[C@H](C)NCc1cc(C(=O)Nc2cc(-c3c(F)cc(C#N)cc3C(=O)N3CC(F)(F)C3)cc(C3CC3)n2)c(=O)n(C2CC2)c1 [Example 125, N-(4-{4-cyano-2-[(3,3-difluoro-1-azetidinyl)carbonyl]-6-fluorophenyl}-6-cyclopropyl-2-pyridyl)-1-cyclopropyl-5-{[(1S,2S)-2-methoxy-1-methylpropylamino]methyl}-2-oxo-1,2-dihydronicotinamide] |
| > 7.00 | O=C(Nc1cc(-c2ccc(OC(F)F)cc2C(=O)N2CC(F)(F)C2)cc(OCC(F)F)n1)c1cc(CNC[C@@H]2CCCO2)cn(C2CC2)c1=O [Example 164] |
| > 7.00 | O=C(Nc1cc(-c2ccc(Cl)cc2C(=O)N2CC(F)(F)C2)cc(C2CC2)n1)c1cc(CNCCCF)cn(C2CC2)c1=O [Example 136, N-(4-{4-chloro-2-[(3,3-difluoro-1-azetidinyl)carbonyl]phenyl}-6-cyclopropyl-2-pyridyl)-1-cyclopropyl-5-[(3-fluoropropylamino)methyl]-2-oxo-1,2-dihydronicotinamide] |
| > 7.00 | COCCNCc1cc(C(=O)Nc2cc(-c3ccc(C#N)cc3C(=O)N3CC(F)(F)C3)cc(C3CC3)n2)c(=O)n(CC(F)(F)F)c1 [Example 194] |
| > 7.00 | CC(C)Oc1cc(-c2ccc(OC(F)F)cc2C(=O)N2CC(F)C2)cc(NC(=O)c2cc(CN[C@@H](C)C3CCC3)cn(C3CC3)c2=O)n1 [Example 249] |
| > 7.00 | CCOc1cc(-c2ccc(C#N)cc2C(=O)N2CC(F)(F)C2)cc(NC(=O)c2cc(CNC[C@@H]3CCCO3)cn(C3CC3)c2=O)n1 [Example 212] |
| > 7.00 | N#Cc1ccc(-c2cc(NC(=O)c3cc(CNC[C@@H]4COCCO4)cn(C4CC4)c3=O)nc(C3CC3)c2)c(C(=O)N2CC(F)(F)C2)c1 [Example 369] |
| > 7.00 | CO[C@H]1CC[C@@H]1NCc1cc(C(=O)Nc2cc(-c3ccc(C#N)cc3C(=O)N3CC(F)(F)C3)cc(C3CC3)n2)c(=O)n(C2CC2)c1 [Example 402] |
| > 7.00 | CO[C@@H](C)CNCc1cc(C(=O)Nc2cc(-c3ccc(C#N)cc3C(=O)N3CC(F)(F)C3)cc(OC(C)C)n2)c(=O)n(C)c1 [Example 117, N-(4-{4-cyano-2-[(3,3-difluoro-1-azetidinyl)carbonyl]phenyl}-6-isopropoxy-2-pyridyl)-5-{[(S)-2-methoxypropylamino]methyl}-1-methyl-2-oxo-1,2-dihydronicotinamide] |
| > 7.00 | COCCNCc1cc(C(=O)Nc2cc(-c3ccc(Cl)cc3C(=O)N3CCC3)cc(C3CC3)n2)c(=O)n(C2CC2)c1 [Example 298] |
| > 7.00 | Cc1ccc(-c2cc(NC(=O)c3cc(CNC[C@@H]4CCCO4)cn(C4CC4)c3=O)nc(C3CC3)c2)c(C(=O)N2CC(F)(F)C2)c1 [Example 304] |
| > 7.00 | CCOc1cc(-c2ccc(OC(F)F)cc2C(=O)N2CC(F)C2)cc(NC(=O)c2cc(CNCC(C)C)cn(C)c2=O)n1 [Example 286] |
| > 7.00 | C[C@@H]1C[C@H]1CNCc1cc(C(=O)Nc2cc(-c3ccc(Cl)cc3C(=O)N3CC(F)(F)C3)cc(C3CC3)n2)c(=O)n(C2CC2)c1 [Example 384] |
| > 7.00 | CC(C)CCNCc1cc(C(=O)Nc2cc(-c3ccc(Cl)cc3C(=O)N3CC(F)(F)C3)cc(C3CC3)n2)c(=O)n(C2CC2)c1 [Example 410] |
| > 7.00 | CC(C)[C@H](C)NCc1cc(C(=O)Nc2cc(-c3ccc(C#N)cc3C(=O)N3CC(F)(F)C3)cc(C3CC3)n2)c(=O)n(C2CC2)c1 [Example 362] |
| > 7.00 | CCOc1cc(-c2c(F)cc(C#N)cc2C(=O)N2CC(F)(F)C2)cc(NC(=O)c2cc(CNC[C@H](C)OC)cn(C3CC3)c2=O)n1 [Example 340] |
| > 7.00 | N#Cc1ccc(-c2cc(NC(=O)c3cc(CNCC4(F)CCC4)cn(C4CC4)c3=O)nc(C3CC3)c2)c(C(=O)N2CC(F)(F)C2)c1 [Example 400] |
| > 7.00 | CO[C@@H](C)CNCc1cc(C(=O)Nc2cc(-c3ccc(Cl)cc3C(=O)N3CC(C(F)(F)F)C3)cc(C3CC3)n2)c(=O)n(C2CC2)c1 [Example 157, N-[4-(4-Chloro-2-{[3-(trifluoromethyl)-1-azetidinyl]carbonyl}phenyl)-6-cyclopropyl-2-pyridyl]-1-cyclopropyl-5-{[(S)-2-methoxypropylamino]methyl}-2-oxo-1,2-dihydronicotinamide] |
| > 7.00 | CCn1cc(CNCC(C)C)cc(C(=O)Nc2cc(-c3ccc(C#N)cc3C(=O)N3CC(F)(F)C3)cc(C3CC3)n2)c1=O [Example 168] |
| > 7.00 | CC1(NCc2cc(C(=O)Nc3cc(-c4ccc(C#N)cc4C(=O)N4CC(F)(F)C4)cc(C4CC4)n3)c(=O)n(C3CC3)c2)CCC1 [Example 390] |
| > 7.00 | CC(C)Oc1cc(-c2ccc(OC(F)F)cc2C(=O)N2CC(F)(F)C2)cc(NC(=O)c2cc(CN[C@@H](C)C(C)C)cn(C3CC3)c2=O)n1 [Example 293] |
| > 7.00 | CCOc1cc(-c2ccc(Cl)cc2C(=O)N2CC(F)C2)cc(NC(=O)c2cc(CNC[C@H](C)OC)cn(C3CC3)c2=O)n1 [Example 255] |
| > 7.00 | CO[C@@H](C)CNCc1cc(C(=O)Nc2cc(-c3ccc(C#N)cc3C(=O)N3CCC3)cc(C3CC3)n2)c(=O)n(C2CC2)c1 [Example 364] |

| pIC50 | Compound |
| --- | --- |
| > 7.00 | CCOc1cc(-c2ccc(OC(F)F)cc2C(=O)N2CC(F)C2)cc(NC(=O)c2cc(CNC[C@H](C)OC)cn(C)c2=O)n1 [Example 275] |
| > 7.00 | CO[C@@H](C)[C@H](C)NCc1cc(C(=O)Nc2cc(-c3ccc(C#N)cc3C(=O)N3CC(F)(F)C3)cc(OC(C)C)n2)c(=O)n(C2CC2)c1 [Example 142] |
| > 7.00 | CC(C)Nc1cc(-c2ccc(OC(F)F)cc2C(=O)N2CC(F)C2)cc(NC(=O)c2cc(CN[C@@H](C)C3CCC3)cn(C)c2=O)n1 [Example 278] |
| > 7.00 | COC[C@H](C)NCc1cc(C(=O)Nc2cc(-c3ccc(C#N)cc3C(=O)N3CC(F)(F)C3)cc(C3CC3)n2)c(=O)n(C2CC2)c1 [Example 361] |
| > 7.00 | CC(C)Oc1cc(-c2ccc(C#N)cc2C(=O)N2CC(F)(F)C2)cc(NC(=O)c2cc(CNC[C@@H]3CCCCO3)cn(C3CC3)c2=O)n1 [Example 392] |
| > 7.00 | CC(C)Oc1cc(-c2ccc(C#N)cc2C(=O)N2CC(F)(F)C2)cc(NC(=O)c2cc(CN[C@@H](C)C(C)(C)F)cn(C3CC3)c2=O)n1 [Example 242] |
| > 7.00 | CO[C@@H](C)CNCc1cc(C(=O)Nc2cc(-c3ccc(C(F)F)cc3C(=O)N3CC(F)(F)C3)cc(C3CC3)n2)c(=O)n(C2CC2)c1 [Example 300] |
| > 7.00 | COc1ccc(-c2cc(NC(=O)c3cc(CN[C@@H](C)[C@H](C)OC)cn(C)c3=O)nc(C3CC3)c2)c(C(=O)N2CC(F)C2)c1 [Example 313] |
| > 7.00 | CC(C)Oc1cc(-c2ccc(C#N)cc2C(=O)N2CC(F)(F)C2)cc(NC(=O)c2cc(CNC[C@@H]3CCCO3)cn(C)c2=O)n1 [Example 389] |
| > 7.00 | CC(C)Oc1cc(-c2ccc(C#N)cc2C(=O)N2CC(F)C2)cc(NC(=O)c2cc(CN[C@@H](C)C3CCC3)cn(C)c2=O)n1 [Example 246] |
| > 7.00 | N#Cc1ccc(-c2cc(NC(=O)c3cc(CNCC4CCC4)cn(C4CC4)c3=O)nc(C3CC3)c2)c(C(=O)N2CC(F)(F)C2)c1 [Example 355] |
| > 7.00 | CC(C)Nc1cc(-c2ccc(Cl)cc2C(=O)N2CC(F)(F)C2)cc(NC(=O)c2cc(CNC[C@@H]3CCCO3)cn(C3CC3)c2=O)n1 [Example 223] |
| > 7.00 | C[C@H](NCc1cc(C(=O)Nc2cc(-c3ccc(C#N)cc3C(=O)N3CC(F)(F)C3)cc(OCC(F)F)n2)c(=O)n(C2CC2)c1)C1CCC1 [Example 130, N-(4-{4-cyano-2-[(3,3-difluoro-1-azetidinyl)carbonyl]phenyl}-6-(2,2-difluoroethoxy)-2-pyridyl)-5-{[(S)-1-cyclobutylethylamino]methyl}-1-cyclopropyl-2-oxo-1,2-dihydronicotinamide] |
| > 7.00 | CCOc1cc(-c2c(F)cc(Cl)cc2C(=O)N2CC(F)(F)C2)cc(NC(=O)c2cc(CNCC(C)C)cn(C3CC3)c2=O)n1 [Example 213] |
| > 7.00 | N#Cc1ccc(-c2cc(NC(=O)c3cc(CNCCCF)cn(C4CC4)c3=O)nc(C3CC3)c2)c(C(=O)N2CC(F)(F)C2)c1 [Example 375] |
| > 7.00 | COCCNCc1cc(C(=O)Nc2cc(-c3ccc(OC(F)F)cc3C(=O)N3CC(F)(F)C3)cc(C3CC3)n2)c(=O)n(C2CC2)c1 [Example 337] |
| > 7.00 | CO[C@@H](C)CNCc1cc(C(=O)Nc2cc(-c3ccc(F)cc3C(=O)N3CC(F)(F)C3)cc(NC(C)C)n2)c(=O)n(C)c1 [Example 380] |
| > 7.00 | CCOc1cc(-c2ccc(OC(F)F)cc2C(=O)N2CC(F)(F)C2)cc(NC(=O)c2cc(CNC[C@H](C)OC)cn(C3CC3)c2=O)n1 [Example 331] |
| > 7.00 | CO[C@@H](C)[C@H](C)NCc1cc(C(=O)Nc2cc(-c3ccc(OC(F)F)cc3C(=O)N3CC(F)(F)C3)cc(OC(C)C)n2)c(=O)n(C)c1 [Example 116, N-(4-{2-[(3,3-difluoro-1-azetidinyl)carbonyl]-4-difluoromethoxyphenyl}-6-isopropoxy-2-pyridyl)-5-{[(1S,2S)-2-methoxy-1-methylpropylamino]methyl}-1-methyl-2-oxo-1,2-dihydronicotinamide] |
| > 7.00 | C[C@H](NCc1cc(C(=O)Nc2cc(-c3ccc(C#N)cc3C(=O)N3CC(F)(F)C3)cc(C3CC3)n2)c(=O)n(C)c1)C1CCC1 [Example 167] |
| > 7.00 | COCCNCc1cc(C(=O)Nc2cc(-c3ccc(C#N)cc3C(=O)N3CC(F)(F)C3)cc(NC(C)C)n2)c(=O)n(C2CC2)c1 [Example 342] |
| > 7.00 | CC(C)CNCc1cc(C(=O)Nc2cc(-c3ccc(C#N)cc3C(=O)N3CC(F)(F)C3)cc(OC(C)C)n2)c(=O)n(C2CC2)c1 [Example 97, N-(4-{4-cyano-2-[(3,3-difluoro-1-azetidinyl)carbonyl]phenyl}-6-isopropoxy-2-pyridyl)-1-cyclopropyl-5-[(isobutylamino)methyl]-2-oxo-1,2-dihydronicotinamide] |
| > 7.00 | COCCNCc1cc(C(=O)Nc2cc(-c3ccc(Cl)cc3C(=O)N(C)C)cc(C3CC3)n2)c(=O)n(C2CC2)c1 [Example 307] |
